From US20110218218A1, “Formulations Of Indanylamines And The Use Thereof As Local Anesthetics And As Medication For Chronic Pain” (BRIDGE PHARMA, INC., priority 2005, published 2011)
Converted amounts (≈) assume the structure as drawn.

How the values were obtained:
[1] = Water solubility (spectrophotometric, HPLC); assay type: physicochemical; settings: LAC-34 as free base
Method: (§1) Water solubility and dissociation constants were determined for the free base of LAC-34 using standard spectrophotometric, HPLC and potentiometric methods.

[2] = Dissociation constant (pKa), potentiometric; assay type: physicochemical; settings: LAC-34 as free base
Method: as §1

[3] = Ternary solubility studies: PG/ethanol solutions titrated with water until cloudy; assay type: physicochemical
Method: Therefore, several solutions were made where PG would be saturated or almost saturated with LAC-34 (i.e., […]). A quantity of ethanol was added to act at the volatile solvent. Each solution was titrated with water until it became cloudy. As with other titrations with water, the LAC-34 appeared to come out of solution as a liquid (oil) rather than a solid.

[4] = test system: batrachotoxin-sensitive Na+ channel (site 2); experiment: [3H]batrachotoxin binding to Na+ channels (site 2); parameters: species or system rat
human NaV1.5 channels = molecular target: T1, human NaV1.5 channels (Homo sapiens, UniProt Q14524); experiment: NaV1.5 electrophysiology (patch clamp) in HEK-293 cells; assay type: cell-based
T1 construct: expressed in transfected cells; host or cells: HEK-293

[5] = Screening of excipients for their capability to dissolve LAC-34 free base at room temperature; assay type: physicochemical; settings: 22 °C, thermodynamic from solid
Method: (§2) HPLC analytical methodology was developed, using LAC-34 free base at room temperature (21-23° C.). A liquid's ability to dissolve LAC-34 was screened by adding a known mass of LAC-34 to a known volume/mass of liquid. Saturation solubility was measured by adding an excess of drug substance and allowing the suspension to equilibrate while stirring for 2-3 days. Four solutions of different concentrations of LAC-34 (8.1 mcg/mL to 0.98 mg/mL) plus a blank were typically tested in triplicate. Excellent linearity of the recovery was obtained over […] in LAC-34 concentrations and the relative standard deviations of peak areas for all LAC-34 solutions were less than 0.5%.
Various excipients were tested for their capability to dissolve LAC-34, free base.

human NaV1.3 channels = molecular target: T2, human NaV1.3 channels (Homo sapiens, UniProt Q9NY46); experiment: NaV1.3 electrophysiology (patch clamp) in HEK-293 cells; assay type: cell-based
T2 construct: expressed in transfected cells; host or cells: HEK-293

[6] = Solubility of LAC-34 in binary mixtures of solvent and water (anti-solvent); assay type: physicochemical
Method: Due to the very high solubility of LAC-34 free base in numerous volatile solvents, it was determined to be necessary to find and add an anti-solvent in order to reach saturation of the solutions of LAC-34. The efficacy of water is an anti-solvent for LAC-34 free base was investigated in the present studies.

[7] = Saturation solubility of LAC-34 free base in selected solvents (HPLC); assay type: physicochemical; settings: 22 °C, thermodynamic from solid
Method: as §2
The saturation solubility of LAC-34 was measured in capric/caprylic triglycerides (CCT), dimethylsulfoxide (DMSO), ethanol, isopropanol, isopropyl myristate (IPM), pentane, propylene glycol (PG), and water. CCT and IPM were selected for further work since they can function as emollients and oily vehicles in creams. DMSO is a solvent and a penetration enhancer. Ethanol and isopropanol are volatile solvents and rapid evaporation of a solvent like ethanol and isopropyl alcohol may be important for minimizing therapeutic onset time. Propylene glycol has multiple functions in dermal formulations, the most important of which are solubilization and penetration enhancement.
The analytical HPLC method described in Example 1 was used.
All of the solvents, with the exception of water, were able to dissolve large quantities of LAC-34. LAC-34, as the free base, was very soluble also in DMSO. Both IPM and CCT, which are semi-polar emollient oils, had also high solubilization capacity for LAC-34. Propylene glycol (PG), which has multiple actions for dermal drug delivery (see Table 1), was also able to solubilize significant quantities of LAC-34. […] After observing this phenomenon with ethanol, 0.125 g of isopropanol was added to 0.25 g of LAC-34. […] This was approximately 526 mg/mL.

[8] = Physical state of LAC-34 in solvents when tested at 4° C.; assay type: physicochemical
Method: When tested at 4° C., 20% LAC-34 in benzyl alcohol was a solution, 5% LAC-34 in propylene glycol was a gel, 5% LAC-34 in isopropyl myristate was a suspension, 5% LAC-34 in isopropyl palmitate was a solid, 5% LAC-34 in isopropyl alcohol was a suspension and cetyl alcohol was a solid (melting point=49.3° C.)

guinea pigs = experiment: Dermal anesthesia after dermal application, pinprick method; assay type: in vivo, guinea pig; settings: for Average Anesthetic Score: 2.0 ml of 5.0% solution in DMSO/water, 30 min occluded, maximal score 6
Method: The purpose of this study was to determine the efficacy of the free base and pharmaceutically acceptable salt forms of LAC-34 as dermal anesthetics, following dermal application of the compounds to guinea pigs. The Duration of Anesthesia is directly related to the Dermal Residence Times of the test articles.
Four groups of six male guinea pigs received a dose of 2.0 ml of a 5.0% solution of four test articles (LAC-34 base, LAC-34 mono-HCl salt, LAC-34 di-HCl salt and LAC-34 mesylate salt) that had been applied onto a two-inch square, 4-layer thick gauze pad on depilated dorsal skin of each guinea pig. Similarly, one group of guinea pigs received the vehicle, which consisted of DMSO/water and served as the control group. The gauze was occluded and the guinea pigs were wrapped for 30 min. Animals were assessed for initial pain reaction (anesthetic depth) at 15-minute intervals up to 3 hours and at 24 hours. An algesimeter, set at 10 g, was employed to assess the onset and depth of anesthesia using the pinprick method causing a twitch response or non-response. The “Average Anesthetic Score” was defined as number of probings not producing a dermal twitch response. Thus, a situation where there were no dermal twitch responses to six probings represent a maximal anesthetic effect and is denoted as an Average Anesthetic Score of 6. Duration of Anesthesia was in this study defined as the time from patch removal until the test scores have regressed to an average anesthetic score below 2.0. The Duration of Anesthesia in this type of experiments is directly related the duration of Dermal Residency for the test articles.

T2 sequence (Q9NY46 whole entry): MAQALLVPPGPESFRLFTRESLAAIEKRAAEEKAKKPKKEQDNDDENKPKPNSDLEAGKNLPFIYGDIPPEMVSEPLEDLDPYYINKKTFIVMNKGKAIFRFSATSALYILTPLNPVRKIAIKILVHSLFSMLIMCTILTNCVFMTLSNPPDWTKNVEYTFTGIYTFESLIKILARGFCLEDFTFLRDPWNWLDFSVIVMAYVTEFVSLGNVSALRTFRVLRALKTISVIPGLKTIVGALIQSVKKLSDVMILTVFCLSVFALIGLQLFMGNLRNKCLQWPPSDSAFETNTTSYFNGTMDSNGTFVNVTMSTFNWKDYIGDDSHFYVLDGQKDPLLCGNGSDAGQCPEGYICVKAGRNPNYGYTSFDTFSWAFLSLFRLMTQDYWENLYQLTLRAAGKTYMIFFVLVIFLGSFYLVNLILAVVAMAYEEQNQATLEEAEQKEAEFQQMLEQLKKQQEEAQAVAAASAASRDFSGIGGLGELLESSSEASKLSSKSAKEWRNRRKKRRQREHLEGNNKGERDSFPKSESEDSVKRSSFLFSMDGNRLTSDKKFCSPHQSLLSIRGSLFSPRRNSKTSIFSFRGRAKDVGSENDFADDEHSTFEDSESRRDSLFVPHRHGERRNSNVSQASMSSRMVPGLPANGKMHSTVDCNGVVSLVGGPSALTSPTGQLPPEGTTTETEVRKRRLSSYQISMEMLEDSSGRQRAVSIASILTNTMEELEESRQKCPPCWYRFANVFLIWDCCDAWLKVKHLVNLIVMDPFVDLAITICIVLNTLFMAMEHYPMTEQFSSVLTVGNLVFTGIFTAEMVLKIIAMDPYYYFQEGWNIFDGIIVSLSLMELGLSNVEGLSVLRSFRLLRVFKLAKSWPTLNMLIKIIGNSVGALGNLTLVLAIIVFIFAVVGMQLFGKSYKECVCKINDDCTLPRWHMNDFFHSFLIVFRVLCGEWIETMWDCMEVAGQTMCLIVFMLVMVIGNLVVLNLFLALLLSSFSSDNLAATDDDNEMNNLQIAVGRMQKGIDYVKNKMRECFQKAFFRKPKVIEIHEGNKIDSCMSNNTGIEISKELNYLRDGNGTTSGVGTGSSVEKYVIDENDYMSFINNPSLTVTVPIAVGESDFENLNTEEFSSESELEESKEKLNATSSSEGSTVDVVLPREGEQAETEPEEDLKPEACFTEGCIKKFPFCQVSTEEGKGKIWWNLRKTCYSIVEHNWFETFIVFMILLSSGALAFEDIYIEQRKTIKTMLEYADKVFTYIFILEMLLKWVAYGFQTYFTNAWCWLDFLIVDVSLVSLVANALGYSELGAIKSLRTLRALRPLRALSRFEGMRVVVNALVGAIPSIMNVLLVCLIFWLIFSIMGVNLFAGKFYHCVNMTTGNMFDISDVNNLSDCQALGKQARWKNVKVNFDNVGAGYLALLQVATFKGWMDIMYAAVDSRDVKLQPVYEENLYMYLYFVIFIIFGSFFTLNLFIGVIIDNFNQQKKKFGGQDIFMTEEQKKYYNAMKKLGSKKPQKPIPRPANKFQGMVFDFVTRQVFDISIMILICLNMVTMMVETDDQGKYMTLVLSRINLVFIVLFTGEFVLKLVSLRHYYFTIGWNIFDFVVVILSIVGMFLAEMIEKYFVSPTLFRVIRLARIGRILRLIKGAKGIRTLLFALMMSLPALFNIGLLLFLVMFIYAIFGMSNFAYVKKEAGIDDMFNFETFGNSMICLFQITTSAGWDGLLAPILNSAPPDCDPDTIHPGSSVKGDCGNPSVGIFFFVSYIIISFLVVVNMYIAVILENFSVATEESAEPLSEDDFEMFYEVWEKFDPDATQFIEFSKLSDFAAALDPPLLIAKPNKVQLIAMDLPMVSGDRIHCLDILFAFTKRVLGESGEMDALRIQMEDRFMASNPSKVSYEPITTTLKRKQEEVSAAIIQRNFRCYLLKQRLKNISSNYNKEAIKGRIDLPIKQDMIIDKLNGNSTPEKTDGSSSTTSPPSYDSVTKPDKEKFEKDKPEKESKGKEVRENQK
T1 sequence (Q14524 whole entry): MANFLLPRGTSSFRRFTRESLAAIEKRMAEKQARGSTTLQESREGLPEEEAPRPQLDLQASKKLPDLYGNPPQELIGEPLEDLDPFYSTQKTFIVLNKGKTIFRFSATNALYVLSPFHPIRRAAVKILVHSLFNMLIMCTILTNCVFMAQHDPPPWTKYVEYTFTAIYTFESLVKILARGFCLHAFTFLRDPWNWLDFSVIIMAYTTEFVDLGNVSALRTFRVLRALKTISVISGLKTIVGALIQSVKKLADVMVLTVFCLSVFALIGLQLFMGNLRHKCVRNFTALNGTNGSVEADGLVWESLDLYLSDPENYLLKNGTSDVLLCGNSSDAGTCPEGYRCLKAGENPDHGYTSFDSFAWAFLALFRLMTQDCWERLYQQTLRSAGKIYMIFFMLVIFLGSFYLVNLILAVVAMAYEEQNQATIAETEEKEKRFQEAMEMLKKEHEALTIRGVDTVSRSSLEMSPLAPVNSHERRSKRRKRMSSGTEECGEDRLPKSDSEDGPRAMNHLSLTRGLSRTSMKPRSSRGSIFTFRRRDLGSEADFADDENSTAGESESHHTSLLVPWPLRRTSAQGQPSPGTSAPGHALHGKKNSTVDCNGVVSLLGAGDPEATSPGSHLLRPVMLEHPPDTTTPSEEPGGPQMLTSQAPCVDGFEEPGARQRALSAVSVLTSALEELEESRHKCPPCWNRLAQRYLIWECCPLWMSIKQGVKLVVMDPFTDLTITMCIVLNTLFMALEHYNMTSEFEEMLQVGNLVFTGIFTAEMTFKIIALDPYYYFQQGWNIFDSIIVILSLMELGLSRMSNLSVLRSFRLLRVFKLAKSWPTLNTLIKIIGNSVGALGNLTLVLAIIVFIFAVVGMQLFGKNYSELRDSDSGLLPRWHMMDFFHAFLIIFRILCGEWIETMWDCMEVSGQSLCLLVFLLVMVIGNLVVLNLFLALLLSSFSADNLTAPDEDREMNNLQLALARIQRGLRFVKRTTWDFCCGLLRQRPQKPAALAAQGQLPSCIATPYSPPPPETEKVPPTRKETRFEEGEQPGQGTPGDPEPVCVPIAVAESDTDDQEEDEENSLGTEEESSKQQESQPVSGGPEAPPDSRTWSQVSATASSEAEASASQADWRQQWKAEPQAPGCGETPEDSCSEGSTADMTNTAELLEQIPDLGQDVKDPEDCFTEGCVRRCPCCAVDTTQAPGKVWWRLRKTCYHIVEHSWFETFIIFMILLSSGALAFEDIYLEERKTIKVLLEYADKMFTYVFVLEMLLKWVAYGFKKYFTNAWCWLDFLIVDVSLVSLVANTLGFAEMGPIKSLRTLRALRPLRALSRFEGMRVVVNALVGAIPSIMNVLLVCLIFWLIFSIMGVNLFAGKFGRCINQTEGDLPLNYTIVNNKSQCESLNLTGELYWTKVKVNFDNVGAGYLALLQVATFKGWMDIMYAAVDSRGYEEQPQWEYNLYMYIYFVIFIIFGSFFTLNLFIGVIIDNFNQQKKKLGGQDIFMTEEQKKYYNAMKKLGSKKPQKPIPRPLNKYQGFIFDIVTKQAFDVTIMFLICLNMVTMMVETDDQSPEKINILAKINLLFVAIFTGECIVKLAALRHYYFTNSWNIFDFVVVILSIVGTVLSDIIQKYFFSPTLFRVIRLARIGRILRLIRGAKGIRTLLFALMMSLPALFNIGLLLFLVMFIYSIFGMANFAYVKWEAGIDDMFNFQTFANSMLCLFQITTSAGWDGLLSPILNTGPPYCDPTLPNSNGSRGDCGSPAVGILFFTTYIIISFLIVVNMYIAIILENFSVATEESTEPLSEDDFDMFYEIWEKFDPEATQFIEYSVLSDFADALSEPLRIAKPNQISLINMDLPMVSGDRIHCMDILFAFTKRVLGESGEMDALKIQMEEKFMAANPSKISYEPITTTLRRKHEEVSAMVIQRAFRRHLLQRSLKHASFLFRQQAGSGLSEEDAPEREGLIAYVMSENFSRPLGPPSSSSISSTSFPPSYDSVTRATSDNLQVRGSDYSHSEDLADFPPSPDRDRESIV

Q: Which results are given for `CCCCNc1ccc(C(=O)OCCN(C)C)cc1` [Tetracaine, reference compound]?
A: solubility [1]: 0.356 mg/mL (≈ 1.35 mM); pKa [2]: 8.51 ± 0.12

Q: For `c1ccc(N(CCC2CCCCN2)C2Cc3ccccc3C2)cc1` (racemic) [LAC-34, 2-[2-(N-Phenyl-N-2-indanyl)aminoethyl]piperidine], which “Saturation Concentration of LAC-34” value ([3]; 0.150 g LAC-34, 1.0 g PG, 0.5 g ethanol, 0.317 g water titrated) is on record?
A: 7.6 % w/w

Q: What about the “Saturation Concentration of LAC-34” value ([3]; 0.150 g LAC-34, 1.0 g PG, 1.0 g ethanol, 0.601 g water titrated) of the same compound?
A: 5.4 % w/w

Q: What about the “Saturation Concentration of LAC-34” value ([3]; 0.200 g LAC-34, 1.0 g PG, 3.0 g ethanol, 1.880 g water titrated) of the same compound?
A: 3.3 % w/w

Q: What about the “Potency relative to lidocaine, batrachotoxin-sensitive Na-channels” value ([4]; calculated from IC50 values) of the same compound?
A: approximately 210 times

Q: What about the IC50 ([4]; rat cerebral cortex, 10 nM ligand, 60 min/22° C., read-out: IC50, inhibition of [3H]batrachotoxin specific binding) of the same compound?
A: 247 nM

Q: What about the IC50 (human NaV1.5 channels) of the same compound?
A: 600 nM

Q: What about the “Potency relative to lidocaine, NaV1.5 channels” value (human NaV1.5 channels; calculated) of the same compound?
A: about 500 times

Q: What about the solubility ([5]; oil or lipid, in isopropyl myristate) of the same compound?
A: > 78 mg/mL

Q: What about the solubility ([5]; oil or lipid, in isopropyl palmitate) of the same compound?
A: 50 to 100 mg/mL (≈ 156 to 312 mM)

Q: And the solubility ([5]; oil or lipid, in mineral oil)?
A: < 50 mg/mL

Q: And the solubility ([5]; organic solvent or mixture, in benzyl alcohol)?
A: > 100 mg/mL

Q: And the solubility ([5]; organic solvent or mixture, in dibutyl adipate)?
A: > 79 mg/mL

Q: And the solubility ([5]; organic solvent or mixture, in ethanol)?
A: > 86 mg/mL

Q: And the solubility ([5]; organic solvent or mixture, in hexylene glycol)?
A: > 75 mg/mL

Q: What about the solubility ([5]; organic solvent or mixture, in isopropyl alcohol) of the same compound?
A: > 79 mg/mL

Q: What about the solubility ([5]; organic solvent or mixture, in propylene carbonate) of the same compound?
A: > 78 mg/mL

Q: And the solubility ([5]; organic solvent or mixture, in propylene glycol)?
A: > 76 mg/mL

Q: What about the IC50 (human NaV1.3 channels; HEK-293 cells, patch clamp) of the same compound?
A: 4000 nM

Q: And the “Potency relative to lidocaine, NaV1.3 channels” value (human NaV1.3 channels; calculated)?
A: more than 200 times

Q: And the solubility ([6]; DMSO with 5% water, organic solvent or mixture, DMSO, 5% water, previous tests)?
A: ≥ 100 mg/mL

Q: And the solubility ([6]; DMSO with 50% water, aqueous with cosolvent or surfactant or cyclodextrin, DMSO, 50% water, read-out: Solubility of LAC-34 in mixture of solvent and water)?
A: 1.7 mg/mL (≈ 5.3 mM)

Q: What about the solubility ([6]; DMSO with 90% water, aqueous with cosolvent or surfactant or cyclodextrin, DMSO, 90% water, read-out: Solubility of LAC-34 in mixture of solvent and water) of the same compound?
A: 0.45 mg/mL (≈ 1.4 mM)

Q: And the solubility ([6]; DMSO, 0% water, organic solvent or mixture)?
A: 215 mg/mL (≈ 671 mM)

Q: What about the solubility ([6]; ethanol with 15% water, organic solvent or mixture, kinetic from dmso stock, ethanol, 15% water, titrated from an ethanol/LAC-34 solution with water) of the same compound?
A: 63 mg/mL (≈ 197 mM)

Q: And the solubility ([6]; ethanol with 20% water, organic solvent or mixture, kinetic from dmso stock, ethanol, 20% water, titrated from an ethanol/LAC-34 solution with water)?
A: 33 mg/mL (≈ 103 mM)

Q: And the solubility ([6]; ethanol with 30% water, organic solvent or mixture, kinetic from dmso stock, ethanol, 30% water, titrated from an ethanol/LAC-34 solution with water)?
A: 7 mg/mL (≈ 21.8 mM)

Q: What about the solubility ([6]; ethanol, 0% water, organic solvent or mixture) of the same compound?
A: > 2000 mg/mL

Q: What about the solubility ([6]; propylene glycol with 1% water, organic solvent or mixture, PG, 1% water) of the same compound?
A: 139 mg/mL (≈ 434 mM)

Q: And the solubility ([6]; propylene glycol with 2.5% water, organic solvent or mixture, PG, 2.5% water)?
A: 104 mg/mL (≈ 325 mM)

Q: And the solubility ([6]; propylene glycol with 5% water, organic solvent or mixture, PG, 5% water)?
A: 63 mg/mL (≈ 197 mM)

Q: And the solubility ([6]; propylene glycol with 10% water, organic solvent or mixture, PG, 10% water)?
A: 29 mg/mL (≈ 90.5 mM)

Q: And the solubility ([6]; propylene glycol with 20% water, organic solvent or mixture, PG, 20% water)?
A: 8.7 mg/mL (≈ 27.1 mM)

Q: And the solubility ([6]; propylene glycol with 50% water, aqueous with cosolvent or surfactant or cyclodextrin, PG, 50% water, read-out: Solubility of LAC-34 in mixture of solvent and water)?
A: 0.37 mg/mL (≈ 1.15 mM)

Q: And the solubility ([6]; propylene glycol with 75% water, aqueous with cosolvent or surfactant or cyclodextrin, PG, 75% water, read-out: Solubility of LAC-34 in mixture of solvent and water)?
A: 0.075 mg/mL (≈ 0.234 mM)

Q: What about the solubility ([6]; propylene glycol, organic solvent or mixture, PG, 0% water) of the same compound?
A: 149 mg/mL (≈ 465 mM)

Q: What about the solubility ([7]; capric/caprylic triglycerides (CCT), oil or lipid, in capric/caprylic triglycerides (CCT)) of the same compound?
A: 195 mg/mL (≈ 608 mM)

Q: And the solubility ([7]; dimethylsulfoxide (DMSO), organic solvent or mixture, in dimethylsulfoxide (DMSO))?
A: 215 mg/mL (≈ 671 mM)

Q: And the solubility ([7]; ethanol, organic solvent or mixture, in ethanol (never saturated))?
A: > 2000 mg/mL

Q: And the solubility ([7]; isopropyl myristate (IPM), oil or lipid, in isopropyl myristate (IPM))?
A: 184 mg/mL (≈ 574 mM)

Q: What about the solubility ([7]; pentane, organic solvent or mixture, in pentane, value uncertain, pentane evaporates rapidly) of the same compound?
A: 150 mg/mL (≈ 468 mM)

Q: What about the solubility ([7]; propylene glycol (PG), organic solvent or mixture, in propylene glycol (PG)) of the same compound?
A: 149 mg/mL (≈ 465 mM)

Q: And the solubility ([7]; water, in water)?
A: 0.005 mg/mL (≈ 0.0156 mM)

Q: And the “Physical state at 4° C.” value ([8]; 5% LAC-34 in isopropyl alcohol)?
A: suspension

Q: What about the “Physical state at 4° C.” value ([8]; 5% LAC-34 in isopropyl myristate) of the same compound?
A: suspension

Q: What about the “Physical state at 4° C.” value ([8]; 5% LAC-34 in isopropyl palmitate) of the same compound?
A: solid

Q: What about the “Physical state at 4° C.” value ([8]; 5% LAC-34 in propylene glycol) of the same compound?
A: gel

Q: And the “Physical state at 4° C.” value ([8]; 20% LAC-34 in benzyl alcohol)?
A: solution

Q: What about the solubility [1] of the same compound?
A: 0.005 mg/mL (≈ 0.0156 mM)

Q: What about the “Average Anesthetic Score” value (guinea pigs; 15 min after patch removal) of the same compound?
A: 4.8

Q: What about the “Average Anesthetic Score” value (guinea pigs; 30 min after patch removal) of the same compound?
A: 4.8

Q: And the “Average Anesthetic Score” value (guinea pigs; 60 min after patch removal)?
A: 4.4

Q: What about the “Average Anesthetic Score” value (guinea pigs; 90 min after patch removal) of the same compound?
A: 3.3

Q: And the “Average Anesthetic Score” value (guinea pigs; 180 min after patch removal)?
A: 2.2

Q: And the “Maximal Depth of Anesthesia” value (guinea pigs; highest Average Anesthetic Score after patch removal, 5.0% solution)?
A: 4.8

Q: And the “Duration of Anesthesia” value (guinea pigs; time from patch removal until average anesthetic score below 2.0, 5.0% solution)?
A: 180 min

Q: What about the pKa [2] of the same compound?
A: 8.09 ± 0.23

Q: Which inhibition at 2000 µM (human NaV1.3 channels; HEK293, read-out: inhibition of NaV1.3 channels) does the source give for `CCN(CC)CC(=O)Nc1c(C)cccc1C` [Lidocaine, reference compound] here?
A: 70%
